Experiments:
Details in all cases: exposure time: 72 h
E21 [1] = patient-derived glioblastoma stem cells of mesenchymal subtype; assay: surviving fraction (nuclei count normalised to DMSO); higher = more cells surviving (less toxic)
E57 [2] = patient-derived glioblastoma stem cells of mesenchymal subtype; assay: as above
E13 [3] = patient-derived glioblastoma stem cells of classical subtype; assay: as above
E31 [4] = patient-derived glioblastoma stem cells of proneural subtype; assay: as above
E34 [5] = patient-derived glioblastoma stem cells of proneural subtype; assay: as above
FT3469 [6] = normal neural stem cell line; assay: as above
E28 [7] = patient-derived glioblastoma stem cells of classical subtype; assay: as above
E21 [8] = assay: phenotypic distance (Euclidean, principal components) from DMSO controls (arbitrary units); higher = stronger morphological change
E57 [9] = assay: as above
E13 [10] = assay: as above
E31 [11] = assay: as above
E34 [12] = assay: as above
FT3469 [13] = assay: as above
E28 [14] = assay: as above
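Wherever phenotypic distance (Euclidean, principal components) from DMSO controls is given: cell Painting imaging in 384-well plates, CellProfiler features reduced to at least 20 principal components, Euclidean distance versus same-plate DMSO vehicle wells (0.1% v/v), median over six images per well.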
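Wherever surviving fraction (nuclei count normalised to DMSO) is given: nuclei counted by high-content imaging of Hoechst-stained cells in laminin-coated 384-well plates, relative to 0.1% DMSO vehicle wells, with staurosporine as cell-death control.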

Structure (SMILES): NC(=O)c1cccc2cn(-c3ccc([C@@H]4CCCNC4)cc3)nc12 [Niraparib]
- surviving fraction (E21 [1]; 4.1 nM): 0.89
- surviving fraction (E21 [1]; 12.3 nM): 0.869
- surviving fraction (E21 [1]; 37 nM): 0.882
- surviving fraction (E21 [1]; 111.1 nM): 0.923
- surviving fraction (E21 [1]; 333.3 nM): 0.916
- surviving fraction (E21 [1]; 1000 nM): 0.927
- surviving fraction (E21 [1]; 3000 nM): 0.942
- surviving fraction (E57 [2]; 4.1 nM): 0.996
- surviving fraction (E57 [2]; 12.3 nM): 0.917
- surviving fraction (E57 [2]; 37 nM): 0.93
- surviving fraction (E57 [2]; 111.1 nM): 0.833
- surviving fraction (E57 [2]; 333.3 nM): 0.951
- surviving fraction (E57 [2]; 1000 nM): 0.921
- surviving fraction (E57 [2]; 3000 nM): 0.826
- surviving fraction (E13 [3]; 4.1 nM): 0.923
- surviving fraction (E13 [3]; 12.3 nM): 0.914
- surviving fraction (E13 [3]; 37 nM): 0.942
- surviving fraction (E13 [3]; 111.1 nM): 0.857
- surviving fraction (E13 [3]; 333.3 nM): 0.967
- surviving fraction (E13 [3]; 1000 nM): 0.966
- surviving fraction (E13 [3]; 3000 nM): 0.811
- surviving fraction (E31 [4]; 4.1 nM): 1.04
- surviving fraction (E31 [4]; 12.3 nM): 0.782
- surviving fraction (E31 [4]; 37 nM): 1
- surviving fraction (E31 [4]; 111.1 nM): 0.896
- surviving fraction (E31 [4]; 333.3 nM): 0.939
- surviving fraction (E31 [4]; 1000 nM): 0.886
- surviving fraction (E31 [4]; 3000 nM): 0.64
- surviving fraction (E34 [5]; 4.1 nM): 0.963
- surviving fraction (E34 [5]; 12.3 nM): 0.904
- surviving fraction (E34 [5]; 37 nM): 0.902
- surviving fraction (E34 [5]; 111.1 nM): 0.971
- surviving fraction (E34 [5]; 333.3 nM): 0.861
- surviving fraction (E34 [5]; 1000 nM): 0.924
- surviving fraction (E34 [5]; 3000 nM): 0.737
- surviving fraction (FT3469 [6]; 4.1 nM): 0.84
- surviving fraction (FT3469 [6]; 12.3 nM): 0.901
- surviving fraction (FT3469 [6]; 37 nM): 0.853
- surviving fraction (FT3469 [6]; 111.1 nM): 0.918
- surviving fraction (FT3469 [6]; 333.3 nM): 0.931
- surviving fraction (FT3469 [6]; 1000 nM): 0.916
- surviving fraction (FT3469 [6]; 3000 nM): 0.743
- surviving fraction (E28 [7]; 4.1 nM): 0.905
- surviving fraction (E28 [7]; 12.3 nM): 0.975
- surviving fraction (E28 [7]; 37 nM): 0.875
- surviving fraction (E28 [7]; 111.1 nM): 0.868
- surviving fraction (E28 [7]; 333.3 nM): 0.922
- surviving fraction (E28 [7]; 1000 nM): 0.84
- surviving fraction (E28 [7]; 3000 nM): 0.603
- phenotypic distance (E21 [8]; 4.1 nM): 1
- phenotypic distance (E21 [8]; 12.3 nM): 1.03
- phenotypic distance (E21 [8]; 37 nM): 0.998
- phenotypic distance (E21 [8]; 111.1 nM): 0.66
- phenotypic distance (E21 [8]; 333.3 nM): 0.751
- phenotypic distance (E21 [8]; 1000 nM): 3.25
- phenotypic distance (E21 [8]; 3000 nM): 0.988
- phenotypic distance (E57 [9]; 4.1 nM): 0.553
- phenotypic distance (E57 [9]; 12.3 nM): 0.936
- phenotypic distance (E57 [9]; 37 nM): 0.684
- phenotypic distance (E57 [9]; 111.1 nM): 0.604
- phenotypic distance (E57 [9]; 333.3 nM): 0.582
- phenotypic distance (E57 [9]; 1000 nM): 0.667
- phenotypic distance (E57 [9]; 3000 nM): 1.51
- phenotypic distance (E13 [10]; 4.1 nM): 6.4
- phenotypic distance (E13 [10]; 12.3 nM): 0.843
- phenotypic distance (E13 [10]; 37 nM): 0.647
- phenotypic distance (E13 [10]; 111.1 nM): 1.65
- phenotypic distance (E13 [10]; 333.3 nM): 1.62
- phenotypic distance (E13 [10]; 1000 nM): 0.782
- phenotypic distance (E13 [10]; 3000 nM): 1.33
- phenotypic distance (E31 [11]; 4.1 nM): 0.907
- phenotypic distance (E31 [11]; 12.3 nM): 1.29
- phenotypic distance (E31 [11]; 37 nM): 1.19
- phenotypic distance (E31 [11]; 111.1 nM): 0.995
- phenotypic distance (E31 [11]; 333.3 nM): 0.875
- phenotypic distance (E31 [11]; 1000 nM): 0.834
- phenotypic distance (E31 [11]; 3000 nM): 2.29
- phenotypic distance (E34 [12]; 4.1 nM): 3.06
- phenotypic distance (E34 [12]; 12.3 nM): 0.78
- phenotypic distance (E34 [12]; 37 nM): 0.587
- phenotypic distance (E34 [12]; 111.1 nM): 0.691
- phenotypic distance (E34 [12]; 333.3 nM): 0.654
- phenotypic distance (E34 [12]; 1000 nM): 0.893
- phenotypic distance (E34 [12]; 3000 nM): 1.77
- phenotypic distance (FT3469 [13]; 4.1 nM): 1.72
- phenotypic distance (FT3469 [13]; 12.3 nM): 0.905
- phenotypic distance (FT3469 [13]; 37 nM): 1.21
- phenotypic distance (FT3469 [13]; 111.1 nM): 0.978
- phenotypic distance (FT3469 [13]; 333.3 nM): 0.746
- phenotypic distance (FT3469 [13]; 1000 nM): 1.12
- phenotypic distance (FT3469 [13]; 3000 nM): 2.12
- phenotypic distance (E28 [14]; 4.1 nM): 0.932
- phenotypic distance (E28 [14]; 12.3 nM): 0.689
- phenotypic distance (E28 [14]; 37 nM): 1.02
- phenotypic distance (E28 [14]; 111.1 nM): 0.861
- phenotypic distance (E28 [14]; 333.3 nM): 0.791
- phenotypic distance (E28 [14]; 1000 nM): 1.23
- phenotypic distance (E28 [14]; 3000 nM): 2.78

Structure (SMILES): COC(=O)C1=C(C)NC(C)=C(C(=O)OCC(C)C)C1c1ccccc1[N+](=O)[O-] (stereo unspecified) [Nisoldipine]
- surviving fraction (E21 [1]; 4.1 nM): 0.82
- surviving fraction (E21 [1]; 12.3 nM): 0.905
- surviving fraction (E21 [1]; 37 nM): 0.945
- surviving fraction (E21 [1]; 111.1 nM): 0.892
- surviving fraction (E21 [1]; 333.3 nM): 0.945
- surviving fraction (E21 [1]; 1000 nM): 0.942
- surviving fraction (E21 [1]; 3000 nM): 0.857
- surviving fraction (E57 [2]; 4.1 nM): 0.904
- surviving fraction (E57 [2]; 12.3 nM): 0.985
- surviving fraction (E57 [2]; 37 nM): 0.923
- surviving fraction (E57 [2]; 111.1 nM): 0.969
- surviving fraction (E57 [2]; 333.3 nM): 0.929
- surviving fraction (E57 [2]; 1000 nM): 1.07
- surviving fraction (E57 [2]; 3000 nM): 0.96
- surviving fraction (E13 [3]; 4.1 nM): 0.894
- surviving fraction (E13 [3]; 12.3 nM): 1.08
- surviving fraction (E13 [3]; 37 nM): 0.924
- surviving fraction (E13 [3]; 111.1 nM): 0.974
- surviving fraction (E13 [3]; 333.3 nM): 0.947
- surviving fraction (E13 [3]; 1000 nM): 0.946
- surviving fraction (E13 [3]; 3000 nM): 0.883
- surviving fraction (E31 [4]; 4.1 nM): 0.972
- surviving fraction (E31 [4]; 12.3 nM): 0.914
- surviving fraction (E31 [4]; 37 nM): 0.886
- surviving fraction (E31 [4]; 111.1 nM): 0.892
- surviving fraction (E31 [4]; 333.3 nM): 0.949
- surviving fraction (E31 [4]; 1000 nM): 0.996
- surviving fraction (E31 [4]; 3000 nM): 0.938
- surviving fraction (E34 [5]; 4.1 nM): 0.949
- surviving fraction (E34 [5]; 12.3 nM): 0.965
- surviving fraction (E34 [5]; 37 nM): 1.04
- surviving fraction (E34 [5]; 111.1 nM): 0.931
- surviving fraction (E34 [5]; 333.3 nM): 0.853
- surviving fraction (E34 [5]; 1000 nM): 0.959
- surviving fraction (E34 [5]; 3000 nM): 0.955
- surviving fraction (FT3469 [6]; 4.1 nM): 0.965
- surviving fraction (FT3469 [6]; 12.3 nM): 0.938
- surviving fraction (FT3469 [6]; 37 nM): 1.04
- surviving fraction (FT3469 [6]; 111.1 nM): 0.966
- surviving fraction (FT3469 [6]; 333.3 nM): 0.965
- surviving fraction (FT3469 [6]; 1000 nM): 0.942
- surviving fraction (FT3469 [6]; 3000 nM): 0.896
- surviving fraction (E28 [7]; 4.1 nM): 0.944
- surviving fraction (E28 [7]; 12.3 nM): 0.957
- surviving fraction (E28 [7]; 37 nM): 0.921
- surviving fraction (E28 [7]; 111.1 nM): 0.86
- surviving fraction (E28 [7]; 333.3 nM): 0.843
- surviving fraction (E28 [7]; 1000 nM): 0.972
- surviving fraction (E28 [7]; 3000 nM): 0.9
- phenotypic distance (E21 [8]; 4.1 nM): 0.832
- phenotypic distance (E21 [8]; 12.3 nM): 0.907
- phenotypic distance (E21 [8]; 37 nM): 1.12
- phenotypic distance (E21 [8]; 111.1 nM): 1.2
- phenotypic distance (E21 [8]; 333.3 nM): 0.961
- phenotypic distance (E21 [8]; 1000 nM): 0.669
- phenotypic distance (E21 [8]; 3000 nM): 1.16
- phenotypic distance (E57 [9]; 4.1 nM): 0.873
- phenotypic distance (E57 [9]; 12.3 nM): 0.508
- phenotypic distance (E57 [9]; 37 nM): 0.494
- phenotypic distance (E57 [9]; 111.1 nM): 0.633
- phenotypic distance (E57 [9]; 333.3 nM): 0.615
- phenotypic distance (E57 [9]; 1000 nM): 0.552
- phenotypic distance (E57 [9]; 3000 nM): 0.478
- phenotypic distance (E13 [10]; 4.1 nM): 0.597
- phenotypic distance (E13 [10]; 12.3 nM): 0.435
- phenotypic distance (E13 [10]; 37 nM): 0.491
- phenotypic distance (E13 [10]; 111.1 nM): 3.02
- phenotypic distance (E13 [10]; 333.3 nM): 1.31
- phenotypic distance (E13 [10]; 1000 nM): 1.21
- phenotypic distance (E13 [10]; 3000 nM): 1.2
- phenotypic distance (E31 [11]; 4.1 nM): 0.922
- phenotypic distance (E31 [11]; 12.3 nM): 1.01
- phenotypic distance (E31 [11]; 37 nM): 1.26
- phenotypic distance (E31 [11]; 111.1 nM): 0.944
- phenotypic distance (E31 [11]; 333.3 nM): 0.976
- phenotypic distance (E31 [11]; 1000 nM): 1.03
- phenotypic distance (E31 [11]; 3000 nM): 1.31
- phenotypic distance (E34 [12]; 4.1 nM): 2
- phenotypic distance (E34 [12]; 12.3 nM): 0.511
- phenotypic distance (E34 [12]; 37 nM): 0.835
- phenotypic distance (E34 [12]; 111.1 nM): 0.542
- phenotypic distance (E34 [12]; 333.3 nM): 0.889
- phenotypic distance (E34 [12]; 1000 nM): 0.614
- phenotypic distance (E34 [12]; 3000 nM): 1.06
- phenotypic distance (FT3469 [13]; 4.1 nM): 0.816
- phenotypic distance (FT3469 [13]; 12.3 nM): 1.12
- phenotypic distance (FT3469 [13]; 37 nM): 0.632
- phenotypic distance (FT3469 [13]; 111.1 nM): 0.827
- phenotypic distance (FT3469 [13]; 333.3 nM): 1.05
- phenotypic distance (FT3469 [13]; 1000 nM): 1.4
- phenotypic distance (FT3469 [13]; 3000 nM): 0.987
- phenotypic distance (E28 [14]; 4.1 nM): 0.647
- phenotypic distance (E28 [14]; 12.3 nM): 0.706
- phenotypic distance (E28 [14]; 37 nM): 1.08
- phenotypic distance (E28 [14]; 111.1 nM): 0.981
- phenotypic distance (E28 [14]; 333.3 nM): 0.997
- phenotypic distance (E28 [14]; 1000 nM): 0.908
- phenotypic distance (E28 [14]; 3000 nM): 0.792
